Here are results for 22 compounds from patent US11203574B2 (BioCryst Pharmaceuticals, Inc., priority 2014, dated 2021).

One assay addresses human plasma kallikrein (Homo sapiens (Human), UniProt P03952). Nature of the assay: Plasma kallikrein activity assay (chromogenic substrate S2302). In kind it is biochemical. Conditions: 2 nM kallikrein, 80 μM S2302, 30° C., pH 7.8; Ki by Cheng-Prusoff equation; values given as ranges; read-out: Ki.
In assay [1] the test system is hereditary angioedema (HAE). Particulars: bradykinin B2 receptor antagonist; cited from earlier work.

Sequence of human plasma kallikrein (P03952 whole entry, looked up): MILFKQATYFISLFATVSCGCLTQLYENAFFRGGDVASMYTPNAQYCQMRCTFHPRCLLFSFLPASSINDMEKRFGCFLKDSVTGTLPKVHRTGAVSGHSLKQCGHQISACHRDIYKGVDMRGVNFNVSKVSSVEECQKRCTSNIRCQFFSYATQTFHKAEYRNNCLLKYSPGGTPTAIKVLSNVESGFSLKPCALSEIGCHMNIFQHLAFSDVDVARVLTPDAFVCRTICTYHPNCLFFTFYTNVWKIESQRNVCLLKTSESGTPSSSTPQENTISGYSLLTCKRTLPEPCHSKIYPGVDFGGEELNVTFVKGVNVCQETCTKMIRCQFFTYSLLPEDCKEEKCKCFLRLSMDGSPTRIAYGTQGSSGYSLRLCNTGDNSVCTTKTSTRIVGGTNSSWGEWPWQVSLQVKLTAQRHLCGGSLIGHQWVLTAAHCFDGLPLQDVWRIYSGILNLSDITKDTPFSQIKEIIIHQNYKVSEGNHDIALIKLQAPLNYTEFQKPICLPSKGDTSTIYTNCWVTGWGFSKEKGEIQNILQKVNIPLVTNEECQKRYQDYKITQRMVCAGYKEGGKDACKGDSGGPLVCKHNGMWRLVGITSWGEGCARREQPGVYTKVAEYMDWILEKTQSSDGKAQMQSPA
Sequence of human plasma kallikrein (P03952 whole entry partner, looked up): as the sequence (P03952 whole entry, looked up) above
Method for human plasma kallikrein: Plasma Kallikrein Activity Assay.
The effect of compounds of the invention on human plasma kallikrein activity was determined using the chromogenic substrates (DiaPharma Group, Inc., West Chester, Ohio, USA). In these experiments, 2 nM kallikrein (Enzyme Research Laboratories, South Bend, Ind., USA) was incubated with 80 μM S2302 (H-D-Pro-Phe-Arg-p-nitroaniline) in the absence or presence of increasing concentrations of compounds of the invention in a final volume of 200 μL Tris-HCl buffer (200 mM NaCl; mM CaCl2; 50 mM Tris-HCl, pH 7.8).
Data were analyzed using SigmaPlot software (Systat Software, Inc., San Jose, Calif., USA) (Four Parameter Logistic Curve).

Usually Ki stands for the dissociation constant of the complex between target and ligand, obtained from inhibition or displacement. Consider `NCc1cccc(-n2nc(C(F)(F)F)cc2C(=O)Nc2cccc(C(NCC3CC3)c3cccc4c3OCO4)c2)c1` (stereo not shown) [192f, 1-(3-(aminomethyl)phenyl)-N-(3-(benzo[d][1,3]dioxol-4-yl(cyclopropylmethylamino)methyl)phenyl)-3-(trifluoromethyl)-1H-pyrazole-5-carboxamide], for which the Ki on human plasma kallikrein lay in the range of 0.1 to 50 nM.

With `Cc1ccccc1C(NCC1CC1)c1cccc(NC(=O)c2cc(C(F)(F)F)nn2-c2cccc(CN)c2)c1` (stereo not shown) [193f, 1-(3-(Aminomethyl)phenyl)-N-(3-(((cyclopropylmethyl)amino)(o-tolyl)methyl)phenyl)-3-(trifluoromethyl)-1H-pyrazole-5-carboxamide], the Ki at human plasma kallikrein fell in the range of 0.1 to 50 nM.

As to `NCc1cccc(-n2nc(C(F)(F)F)cc2C(=O)Nc2cccc(C(NCC3CC3)c3cccc(F)c3)c2)c1` (stereo not shown) [195f, 1-(3-(aminomethyl)phenyl)-N-(3-(((cyclopropylmethyl)amino)(3-fluorophenyl)methyl)phenyl)-3-(trifluoromethyl)-1H-pyrazole-5-carboxamide], on human plasma kallikrein, the Ki lay in the range of 0.1 to 50 nM.

`NCc1cccc(-n2nc(C(F)(F)F)cc2C(=O)Nc2cccc(C(NCC3CC3)c3ccc(F)cc3F)c2)c1` (stereo not shown) [196f, 1-(3-(aminomethyl)phenyl)-N-(3-(((cyclopropylmethyl)amino)(2,4-difluorophenyl)methyl)phenyl)-3-(trifluoromethyl)-1H-pyrazole-5-carboxamide]: the Ki on human plasma kallikrein is 0.1 to 50 nM.

Consider `NCc1cccc(-n2nc(C(F)(F)F)cc2C(=O)Nc2cccc(C(NCC3CC3)c3cc(F)ccc3F)c2)c1` (stereo not shown) [197f, 1-(3-(aminomethyl)phenyl)-N-(3-(((cyclopropylmethyl)amino)(2,5-difluorophenyl)methyl)phenyl)-3-(trifluoromethyl)-1H-pyrazole-5-carboxamide], for which the Ki on human plasma kallikrein was 0.1 to 50 nM.

In the case of `NCc1cccc(-n2nc(C(F)(F)F)cc2C(=O)Nc2cccc(C(NCC3CC3)c3c(F)cccc3F)c2)c1` (stereo not shown) [198f, 1-(3-(aminomethyl)phenyl)-N-(3-(((cyclopropylmethyl)amino)(2,6-difluorophenyl)methyl)phenyl)-3-(trifluoromethyl)-1H-pyrazole-5-carboxamide], at human plasma kallikrein, the Ki lay within 0.1 to 50 nM.

`NCc1cccc(-n2nc(C(F)(F)F)cc2C(=O)Nc2cccc(C(NCC3CC3)c3ccc(Cl)cc3)c2)c1` (stereo not shown) [199f]: at human plasma kallikrein, the Ki was in the range of 0.1 to 50 nM.

Turning to `NCc1cccc(-n2nc(C(F)(F)F)cc2C(=O)Nc2cccc(C(NCC3CC3)c3ccc(Cl)cc3Cl)c2)c1` (stereo not shown) [200f, 1-(3-(aminomethyl)phenyl)-N-(3-((2,4-dichlorophenyl)((cyclopropylmethyl)amino)methyl)phenyl)-3-(trifluoromethyl)-1H-pyrazole-5-carboxamide], the Ki on human plasma kallikrein was 0.1 to 50 nM.

In the case of `Cc1ccc(C(NCC2CC2)c2cccc(NC(=O)c3cc(C(F)(F)F)nn3-c3cccc(CN)c3)c2)c(C)c1` (stereo not shown) [201f, 1-(3-(aminomethyl)phenyl)-N-(3-(((cyclopropylmethyl)amino)(2,4-dimethylphenyl)methyl)phenyl)-3-(trifluoromethyl)-1H-pyrazole-5-carboxamide], the Ki on human plasma kallikrein lay in the range of 0.1 to 50 nM.

Turning to `Cc1ccc(C)c(C(NCC2CC2)c2cccc(NC(=O)c3cc(C(F)(F)F)nn3-c3cccc(CN)c3)c2)c1` (stereo not shown) [202f, 1-(3-(aminomethyl)phenyl)-N-(3-(((cyclopropylmethyl)amino)(2,5-dimethylphenyl)methyl)phenyl)-3-(trifluoromethyl)-1H-pyrazole-5-carboxamide], the Ki at human plasma kallikrein was 0.1 to 50 nM.

As for `NCc1cccc(-n2nc(C(F)(F)F)cc2C(=O)Nc2cccc(C(NCC3CC3)c3ccc(O)c(Br)c3)c2)c1` (stereo not shown) [207j, 1-(3-(Aminomethyl)phenyl)-N-(3-((3-bromo-4-hydroxyphenyl)(cyclopropylmethylamino)methyl)phenyl)-3-(trifluoromethyl)-1H-pyrazole-5-carboxamide], the Ki on human plasma kallikrein fell in the range of 0.1 to 50 nM.

With `NCc1cccc(-n2nc(C(F)(F)F)cc2C(=O)Nc2cccc(C(CCC3CC3)n3ccccc3=O)c2)c1` (stereo not shown) [247c, 1-(3-(aminomethyl)phenyl)-N-(3-(3-cyclopropyl-1-(2-oxopyridin-1(2H)-yl)propyl)phenyl)-3-(trifluoromethyl)-1H-pyrazole-5-carboxamide], the Ki on human plasma kallikrein was 0.1 to 50 nM.

Turning to `NCc1cccc(-n2nc(C(F)(F)F)cc2C(=O)Nc2cccc(C(CCC3CC3)N3CCCC3=O)c2)c1` (stereo not shown) [247e, 1-(3-(aminomethyl)phenyl)-N-(3-(3-cyclopropyl-1-(2-oxopyrrolidin-1-yl)propyl)phenyl)-3-(trifluoromethyl)-1H-pyrazole-5-carboxamide], the Ki at human plasma kallikrein lay within 0.1 to 50 nM.

`NCc1cccc(-n2nc(C(F)(F)F)cc2C(=O)Nc2cc(C(CCC3CC3)n3ccncc3=O)ccc2F)c1` (stereo not shown) [249b, 1-(3-(aminomethyl)phenyl)-N-(5-(3-cyclopropyl-1-(2-oxopyrazin-1(2H)-yl)propyl)-2-fluorophenyl)-3-(trifluoromethyl)-1H-pyrazole-5-carboxamide]: the Ki at human plasma kallikrein lay in the range of 0.1 to 50 nM.

For the compound `CN1CCCN(C(CCC2CC2)c2ccc(F)c(NC(=O)c3cc(C(F)(F)F)nn3-c3cccc(CN)c3)c2)CC1` (stereo not shown) [251e, 1-(3-(aminomethyl)phenyl)-N-(5-(3-cyclopropyl-1-(4-methyl-1,4-diazepan-1-yl)propyl)-2-fluorophenyl)-3-(trifluoromethyl)-1H-pyrazole-5-carboxamide], on human plasma kallikrein, the Ki fell in the range of 50 to 100 nM.

With `NCc1cccc(-n2nc(C(F)(F)F)cc2C(=O)Nc2cc(C(=CCC3CC3)c3ccccc3)ccc2F)c1` [252c, 1-(3-(aminomethyl)phenyl)-N-(5-(3-cyclopropyl-1-phenylprop-1-enyl)-2-fluorophenyl)-3-(trifluoromethyl)-1H-pyrazole-5-carboxamide], at human plasma kallikrein, the Ki lay in the range of 0.1 to 50 nM.

On to `Nc1nccc2ccc(-n3nc(C(F)(F)F)cc3C(=O)Nc3cc(C(CCC4CC4)n4ccccc4=O)ccc3F)cc12` (stereo not shown) [258g, 1-(1-aminoisoquinolin-7-yl)-N-(5-(3-cyclopropyl-1-(2-oxopyridin-1(2H)-yl)propyl)-2-fluorophenyl)-3-(trifluoromethyl)-1H-pyrazole-5-carboxamide], for which the Ki at human plasma kallikrein lay within 0.1 to 50 nM.

Consider `Nc1nccc2ccc(-n3nc(C(F)(F)F)cc3C(=O)Nc3cc(C(CCC4CC4)n4ccncc4=O)ccc3F)cc12` (stereo not shown) [259d, 1-(1-aminoisoquinolin-7-yl)-N-(5-(3-cyclopropyl-1-(2-oxopyrazin-1(2H)-yl)propyl)-2-fluorophenyl)-3-(trifluoromethyl)-1H-pyrazole-5-carboxamide], for which the Ki at human plasma kallikrein was in the range of 0.1 to 50 nM.

With `NCc1cccc(-n2nc(C(F)(F)F)cc2C(=O)Nc2cc(C(CCC3CC3)N3C(=O)CCC3=O)ccc2F)c1` (stereo not shown) [260b, 1-(3-(aminomethyl)phenyl)-N-(5-(3-cyclopropyl-1-(2,5-dioxopyrrolidin-1-yl)propyl)-2-fluorophenyl)-3-(trifluoromethyl)-1H-pyrazole-5-carboxamide], at human plasma kallikrein, the Ki lay within 0.1 to 50 nM.

Turning to `NCc1cccc(-n2nc(C(F)(F)F)cc2C(=O)Nc2cc(C(CCC3CC3)n3ccc(=O)[nH]c3=O)ccc2F)c1` (stereo not shown) [263d, 1-(3-(aminomethyl)phenyl)-N-(5-(3-cyclopropyl-1-(2,4-dioxo-3,4-dihydropyrimidin-1(2H)-yl)propyl)-2-fluorophenyl)-3-(trifluoromethyl)-1H-pyrazole-5-carboxamide], on human plasma kallikrein, the Ki fell in the range of 0.1 to 50 nM.

In the case of `Nc1nccc2ccc(-n3nc(C(F)(F)F)cc3C(=O)Nc3cc(C(CCC4CC4)n4ccc(=O)[nH]c4=O)ccc3F)cc12` (stereo not shown) [269b, 1-(1-aminoisoquinolin-7-yl)-N-(5-(3-cyclopropyl-1-(2,4-dioxo-3,4-dihydropyrimidin-1(2H)-yl)propyl)-2-fluorophenyl)-3-(trifluoromethyl)-1H-pyrazole-5-carboxamide], the Ki on human plasma kallikrein was 0.1 to 50 nM.

Consider `NC(N)=NCCC[C@@H](N)C(=O)N[C@@H](CCCN=C(N)N)C(=O)N1CCC[C@H]1C(=O)N1C[C@H](O)C[C@H]1C(=O)NCC(=O)N[C@@H](Cc1cccs1)C(=O)N[C@@H](CO)C(=O)N1Cc2ccccc2C[C@@H]1C(=O)N1[C@H](C(=O)N[C@@H](CCCN=C(N)N)C(=O)O)C[C@@H]2CCCC[C@@H]21` [Icatibant], for which the “treatment of HAE” value in assay [1] is on record as “effective in treating HAE”.
